Marks after values point to notes of the source that are not given here. Positions of bridges follow the written chain, without caps; N, C: chain ends. Residues, ends and D or L forms follow the SMILES beside them.
How the values were obtained:
[1] = tested on: three S. aureus strains; assay: Mouse mastitis model, histopathological analysis and scoring of mammary tissues; format: in vivo; conditions: mice infected with the three S. aureus strains, 100 μg/gland
Excerpt: The 7 to 8-weeks old ICR mice (80 females, 40 males) were housed in independent ventilated cages, and feed with autoclaved laboratory food and water. Female mice in heat were put into the cage of males (females:males, 2:1) overnight and checked for vaginal plugs at the following morning to induce pregnancy. ICR-lactating mice were used at 6 to 8 days after the birth of the offspring. The mouse mastitis model was established as previously described (Li et al. [2017]). Mice were randomly divided into nine groups: NC group (uninfected group), PC group (infected but without treatment), NZX groups (25, 50, 100, 200 and 400 μg/gland, respectively), lincomycin group (100 μg/gland), and ceftiofur group (100 μg/gland). Each experimental group has six independent experiments with three mice. Specially, the pups were removed 1 h before the intramammary injection of both L4 (on the left) and R4 (on the right) abdominal mammal glands. […]
After mouse sacrifice, one part of mammary tissue was taken for bacterial count, and the other part was used for the histopathological analysis. […] The bacterial number on each plate was counted and the results were expressed as Log10 CFU per gram of mammary tissues. […]

[2] = Pharmacokinetics in mouse mammary gland after intramammary administration; format: in vivo
Description: (§1) A 0.5 g of mammary tissue or milk were weighed, homogenized, and transferred to a 10 mL polypropylene centrifuge tube, respectively, extracted sequentially by adding into a 3 mL of 0.1 M of McFarland buffer and 1% trichloroacetic acid (TCA), and cleaned by a C18 solid-phase extraction (SPE) cartridge (Oasis MAX 3 cc 60 mg and Oasis HLB 3 cc 60 mg, respectively, Waters, USA). Afterwards, a 2 mL of 45% acetonitrile with 2% formic acid and 3 mL of 45% acetonitrile were used to elute the columns, respectively, the collected eluents were freeze-dried and dissolved in 200 µL of deionized water and filtered by a […] sterile filter membrane before the analysis of high-performance liquid chromatography-ultraviolet (HPLC–UV). The HPLC–UV with a C18 reverse-phase column (ZORBAX Eclipse Plus C18 4.6 mm × 250 mm, 5 µm) conditions for detecting NZX were as follows: the mobile phase consisted of A: 0.1% trifluoroacetate […] in acetonitrile and B: 0.1%TFA in water; the injection volume was 40 μL; the wavelength of UV detector was 280 nm; flow rate was 1.0 mL/min; the column temperature was 35 °C, and the elution was conducted with a linear gradient of 20–45% mobile phase A for 16 min. The linear relationship, limits of detection (LOD), limits of quantitation (LOQ), accuracy and precision were determined by adding the known concentrations of NZX into the extracted blank matrix of mammary gland. Each concentration was conducted three times.
A pharmacokinetic assessment of a single dose of NZX at 100 μg/gland was carried out using 36 individual healthy lactating mice following intramammary administration (Wang et al. [2021]). Mammary tissues were harvested at 0.083, 0.5, 1, 2, 3, 4, 6, 9, 12, 16, 20 and 24 h with three mice (six mammary in total) at each time point. The collected samples were then placed into 2 mL eppendorf tubes and stored at − 80 °C before the content determination of NZX in mammary gland by HPLC–UV. Briefly, a portion of the mammary gland tissues (0.5 g) was weighed in 2 mL eppendorf tubes, homogenized for 20 min (50 HZ and 4 °C) in 0.5 mL of PBS solution, and pretreated and purified by a MAX cartridge as described above. The pharmacokinetic parameters of NZX in mammary gland tissues were calculated by non-compartmental model using WinNonlin Phoenix version 8.1 (Pharsight Co., Mountain View, CA, USA).

[3] = tested on: S. aureus E48; conditions: 1 × 10^5 CFU/mL, 16–18 h, 37 °C, value marked a, already published, ref Zheng et al. [2022]; cited from earlier work
Excerpt: Table 1 The MICs, MBCs and MPCs of NZX and antibiotics against S. aureus strains (μM) | column: S. aureus E48 / MIC

[4] = tested on: S. aureus ATCC 43300; conditions: 1 × 10^5 CFU/mL, 16–18 h, 37 °C, value marked a, already published, ref Zheng et al. [2022]; cited from earlier work
Excerpt: Table 1 The MICs, MBCs and MPCs of NZX and antibiotics against S. aureus strains (μM) | column: S. aureus ATCC 43300 / MIC

[5] = tested on: S. agalactiae; conditions: against S. agalactiae; ref Wu et al. [2022]; cited from earlier work
Excerpt: MPCs and PAEs were also important parameters to allow antimicrobial dosage regimens to be developed in a much more scientific approach to reduce treatment cost, and the incidences of drug resistant bacteria and avoid unnecessary drug toxicity (Mackenzie and Gould [1993]).

[6] = Stability of NZX in mammary gland tissue homogenate; format: in vitro ADME; conditions: mouse, 100 μg/mL in mammary gland tissue homogenate, 37 °C, SPE then HPLC–UV 280 nm, mean peak area / initial value, read-out: residual amount of NZX in mammary tissue homogenate
Description: as §1
A 100 μg/mL of NZX was suspended in mammary gland tissue homogenate or milk, respectively, and then incubated at 37 °C for 0, 8, 16 and 24 h, respectively. Afterwards, samples were pretreated and quantified as the above methods. The results were expressed as a ratio of the mean peak area measured at different times divided by the mean value of the initial value.

[7] = tested on: S. aureus ATCC 25923; conditions: 1 × 10^5 CFU/mL, 16–18 h, 37 °C, value marked a, already published, ref Zheng et al. [2022]; cited from earlier work
Excerpt: Table 1 The MICs, MBCs and MPCs of NZX and antibiotics against S. aureus strains (μM) | column: S. aureus ATCC 25923 / MIC

[8] = mouse mammary tissue, single 100 μg/gland intramammary, healthy lactating mice, HPLC–UV, non-compartmental model

In the case of `CC[C@H](C)[C@@H]1NC(=O)[C@H](CO)NC(=O)[C@H](CCCCN)NC(=O)[C@@H]2CSSC[C@@H](C(=O)N[C@@H](Cc3ccc(O)cc3)C(=O)O)NC(=O)[C@H](CCCCN)NC(=O)[C@@H]3CSSC[C@H](NC(=O)[C@H](CCC(N)=O)NC(=O)[C@H]([C@@H](C)CC)NC(=O)[C@H](CC(=O)O)NC(=O)[C@H](CC(=O)O)NC(=O)[C@H](CCC(=O)O)NC(=O)[C@H](CO)NC(=O)[C@H](Cc4c[nH]c5ccccc45)NC(=O)[C@@H]4CCCN4C(=O)CNC(=O)[C@H](CC(N)=O)NC(=O)[C@@H](NC(=O)CNC(=O)[C@H](Cc4ccccc4)NC(=O)CN)CSSC[C@H](NC(=O)[C@H](Cc4ccc(O)cc4)NC(=O)CNC(=O)CNC(=O)[C@H](CCCCN)NC(=O)[C@H](Cc4ccc(O)cc4)NC(=O)CNC(=O)[C@H](CCCCN)NC1=O)C(=O)N[C@@H](C)C(=O)N[C@@H](CCCNC(=N)N)C(=O)NCC(=O)NCC(=O)N[C@@H](Cc1ccccc1)C(=O)N[C@@H](C(C)C)C(=O)N3)C(=O)N[C@@H](Cc1c[nH]cn1)C(=O)N[C@@H](CC(N)=O)C(=O)N[C@@H](Cc1c[nH]cn1)C(=O)N2` [NZX] (H-GFGCNGPWSEDDIQCHNHCKSIKGYKGGYCARGGFVCKCY-OH; disulfide 4-30, 15-37, 19-39; N-terminus and C-terminus assumed), the “inflammatory symptoms of mammary tissue (H&E histology)” value ([1]; 24 h after treatment) is reported as “obviously improved”, the “pathological scores of mammary tissues” value ([1]; compared with the PC group) is reported as “significantly decreased” and the “AUC, area under the concentration time curve from time 0 to 24 h” value [2, 8] is reported as 391 µg·h/g. For the same compound, the “Cmax, peak concentration” value [2, 8] was 32.49 µg/g, the “Tmax, peak time” value [2, 8] was 0.5 h and the “T1/2, terminal elimination half-life” value ([2]; mouse mammary tissue, single 100 μg/gland intramammary, healthy lactating mice, HPLC–UV, non-compartmental model, three mice (six glands) per time point) was 35.11 h. The “tissue distribution after administration by milk duct” value ([2]; mouse, no detection in serum and organs (data not shown)) was “only distributed into mammary gland tissues”, the MIC [3] was 0.23^a μM and the MIC [4] was 0.23^a μM. The MPC [5] was 1.82 µM, the remaining at 8 h, 100 μg/mL ([6]; 8 h) was 72.2% and the remaining at 16 h, 100 μg/mL ([6]; 16 h) was 48.4%. The remaining at 24 h, 100 μg/mL ([6]; 24 h) was 47.9% and the MIC [7] was 0.46^a μM.

Source: article PMC11636681, “Pharmacokinetics and pharmacodynamics of antibacterial peptide NZX in Staphylococcus aureus mastitis mouse model” (Applied Microbiology and Biotechnology, 2024)
